# Measurements published in patent US9029405B2, “5-(biphenyl-4-yl)-3-phenyl-1,2,4-oxadiazolyl derivatives as ligands on the sphingosine 1-phosphate(SIP)receptors” (Merck Serono S.A., priority 2010, dated 2015).
# Counter-ions that a name gives are not always drawn.
# Experiments:
# [1] = Pharmacokinetics from lymphopenia study (mouse); type: in vivo; details: PK-PD (30 mpk)
# Procedure: (§1) Female C57BL/6 mice (Elevage Janvier) (8 week old) receive S1P agonists by oral route. Blood is sampled in heparinized (100 IU/kg, ip) mice by intracardiac or retroorbital puncture under isoflurane anesthesia 2 to 120 hrs after drug treatment. The white blood cells (lymphocytes and neutrophils) are counted using a Beckman/Coulter counter. The quality of blood sampling is assessed by counting erythocytes and platelets.
# The pharmacokinetic properties of compound of example 31, 2-({2-Fluoro-4-[5-(2′-methyl-2-trifluoromethyl-biphenyl-4-yl)-[1,2,4]oxadiazol-3-yl]-benzyl}-methyl-amino)-2-methyl-propionic acid, are the following: […]
# lymphocytes = assay: Model of S1P agonists-induced lymphopenia in mice; type: in vivo; details: oral route, 30 mpk
# Procedure: as §1
# S1P1 [2] = target: T1, S1P1 (Homo sapiens, UniProt P21453); assay: Receptor binding assay, [33P]sphingosine 1-phosphate competition, membranes of CHO cells expressing S1P1; details: 384 well plate; read-out: S1P1 Binding Ki [M] (384 well plate)
# Outline: (§2)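 SPA competition on CHO membranes with [33P]S1P at 30 pM (S1P1) or 15 pM (S1P3), in 50 mM HEPES pH 7.5, 5 mM MgCl2, 100 mM NaCl, 0.4% fatty acid-free BSA, 60 min at RT. Non-specific binding defined by 1000-fold unlabeled S1P; Ki values reported.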
# Target sequence in this assay (P21453 whole entry, species assumed): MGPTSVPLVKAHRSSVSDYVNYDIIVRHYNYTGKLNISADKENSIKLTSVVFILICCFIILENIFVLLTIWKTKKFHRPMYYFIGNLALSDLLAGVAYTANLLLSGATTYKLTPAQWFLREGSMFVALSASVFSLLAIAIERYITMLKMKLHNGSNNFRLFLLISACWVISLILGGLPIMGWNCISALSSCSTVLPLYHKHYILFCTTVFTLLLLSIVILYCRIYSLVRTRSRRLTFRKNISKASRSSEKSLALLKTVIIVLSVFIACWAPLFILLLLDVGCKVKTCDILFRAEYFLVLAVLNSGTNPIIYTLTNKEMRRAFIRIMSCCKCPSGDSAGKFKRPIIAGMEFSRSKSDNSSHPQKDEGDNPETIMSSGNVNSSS
# S1P1 [3] = target: T1, S1P1; assay: S1P1 internalization assay in S1P1-U2OS cells (cell imaging); type: cell-based; parameters: host or cells: U2OS (human bone osteosarcoma epithelial cells); details: U2OS cells expressing S1P1-EGFP, 384-well format
# Outline: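 U2OS cells stably expressing human S1P1-EGFP, serum-starved 2 h in medium with 0.1% fatty-acid-free BSA, then compound 1 h at 37° C. After fixation and Hoechst nuclear stain, receptor internalization imaged as EGFP spot count per nucleus.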
# Target sequence in this assay (P21453 whole entry): as the sequence (P21453 whole entry, species assumed) above
# S1P3 = S1P3 (Homo sapiens, UniProt Q99500); assay: Receptor binding assay, [33P]sphingosine 1-phosphate competition, membranes of CHO cells expressing S1P3; details: 384 well plate; read-out: S1P3 Binding Ki [M] (384 well plate)
# Outline: as §2
# [4] = female, C57BL/6, plasma, 30 mg/kg, oral route
# S1P3, sequence (Q99500 whole entry, species assumed): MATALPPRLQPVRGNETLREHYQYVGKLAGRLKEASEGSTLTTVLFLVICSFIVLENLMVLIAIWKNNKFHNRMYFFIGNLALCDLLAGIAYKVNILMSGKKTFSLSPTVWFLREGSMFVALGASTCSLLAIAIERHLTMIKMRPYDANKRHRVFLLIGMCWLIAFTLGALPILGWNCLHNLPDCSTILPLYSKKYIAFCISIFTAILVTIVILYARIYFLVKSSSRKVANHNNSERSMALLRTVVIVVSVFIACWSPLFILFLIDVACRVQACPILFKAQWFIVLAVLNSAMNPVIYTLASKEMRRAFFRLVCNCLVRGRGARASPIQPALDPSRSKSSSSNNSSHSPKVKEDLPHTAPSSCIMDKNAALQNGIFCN
smiles,measurement,setting,value
"Cc1ccccc1-c1ccc(-c2nc(-c3ccc(CN(C)C(C)(C)C(=O)O)c(F)c3)no2)cc1C(F)(F)F [Example 31, 2-({2-Fluoro-4-[5-(2′-methyl-2-trifluoromethyl-biphenyl-4-yl)-[1,2,4]oxadiazol-3-yl]-benzyl}-methyl-amino)-2-methyl-propionic acid]",Lymphe node/plasma ratio: 24 h,[1]; 24 h,2.5
same,Lymphe node/plasma ratio: 48 h,[1]; 48 h,2.7
same,CI/F,[1]; oral route,6.7 mL/min/kg
same,Kp,"[1]; female, C57BL/6, brain/plasma, oral, 30 mg/kg, ratio of AUCz, read-out: Brain/plasma ratio: AUCZ (h*ng/ml)",3.5
same,AUC(0-inf),[1]; [4],75000 ng·h/mL
same,Cmax,[1]; [4],7420 ng/mL
same,Tmax,[1]; [4],2 h
same,half-life,"[1]; female, C57BL/6, plasma, 30 mg/kg, oral route, read-out: T½ (converted)",6.3 h
same,% of lymphopenia in mouse at 48 h,lymphocytes,% of lymphopenia in mouse at 48 h 67 +/− 6
same,Ki,S1P1 [2],5.32e-09 M
same,EC50,S1P1 [3],36.6 nM
same,Ki,S1P3,2.54e-06 M
"Cc1ccccc1-c1ccc(-c2nc(-c3cccc(C(C)NCC(=O)O)c3)no2)cc1C(F)(F)F (stereo not shown) (as salt: hydrochloride) [Example 42, N-[1-(3-{5-[2′-methyl-2-(trifluoromethyl)biphenyl-4-yl]-1,2,4-oxadiazol-3-yl}phenyl)ethyl]glycine, hydrochloride salt]",melting point,,177 °C
"CCC(NCc1ccc(-c2noc(-c3ccc(-c4ccccc4C)c(C(F)(F)F)c3)n2)cc1F)C(=O)O (stereo not shown) (as salt: hydrochloride) [Example 41, 2-[(2-fluoro-4-{5-[2′-methyl-2-(trifluoromethyl)biphenyl-4-yl]-1,2,4-oxadiazol-3-yl}benzyl)amino]butanoic acid, hydrochloride salt]",melting point,,214 °C
"Cc1cc(-c2nc(-c3ccc([C@@H](C)N(C)CC(=O)O)cc3)no2)ccc1-c1ccccc1C(F)(F)F (as salt: hydrochloride) [Example 35, N-methyl-N-[(1R)-1-(4-{5-[2-methyl-2′-(trifluoromethyl)biphenyl-4-yl]-1,2,4-oxadiazol-3-yl}phenyl)ethyl]glycine, hydrochloride salt]",melting point,,217 °C
"Cc1ccccc1-c1ccc(-c2nc(-c3ccc([C@@H](C)N(C)CC(=O)O)cc3)no2)cc1C(F)(F)F (as salt: hydrochloride) [Example 36, N-methyl-N-[(1R)-1-(4-{5-[2′-methyl-2-(trifluoromethyl)biphenyl-4-yl]-1,2,4-oxadiazol-3-yl}phenyl)ethyl]glycine, hydrochloride salt]",melting point,,221 °C
